Assay results: patent US7192924B2, “Corticotropin releasing factor 2 receptor agonists” (priority 2002, dated 2007)
Ends that are not written are not given here. Peptide text beside a SMILES is read from it.

How the values were obtained:
CRF2R = target: T1, CRF2R (Homo sapiens, UniProt Q13324); experiment: CRF2R agonist activity (EC50, Emax), called comparative CRF binding; type: cell-based; settings: read-out: CRF2R EC50
T1 sequence (Q13324 1-411): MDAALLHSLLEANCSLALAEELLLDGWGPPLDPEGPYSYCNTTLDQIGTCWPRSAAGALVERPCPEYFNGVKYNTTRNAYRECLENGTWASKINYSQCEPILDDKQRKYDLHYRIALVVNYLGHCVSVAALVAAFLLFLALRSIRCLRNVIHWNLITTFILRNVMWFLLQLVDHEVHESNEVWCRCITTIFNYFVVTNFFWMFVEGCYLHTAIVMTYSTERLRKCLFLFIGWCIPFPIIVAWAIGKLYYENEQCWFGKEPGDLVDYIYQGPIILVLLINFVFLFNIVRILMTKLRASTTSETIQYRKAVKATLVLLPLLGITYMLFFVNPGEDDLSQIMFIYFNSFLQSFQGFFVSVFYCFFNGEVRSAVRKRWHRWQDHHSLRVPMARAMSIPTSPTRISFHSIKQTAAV
Text: (§1) The pharmacological activity and selectivity of the peptides of present invention can be determined using published test procedures. See, e.g, U.S. patent application Ser. No. 09/799,978. Because CRF2R and CRF1R are homologous proteins, it is expected that a certain proportion of agonists for CRF2R will also function as agonists of CRF1R. As discussed above, activation of CRF1R induces activation of the HPA axis since increased corticosteroid production leads to skeletal muscle atrophy. In most cases in which an increase in muscle mass or function is desired, it is not desirable to activate the HPA axis.
(§2) Because it is desirable to discriminate binding between CRF2R, as compared with CRF1R, the assays described above may be conducted using a cell, or membrane from a cell, which expresses only CRF2R or the assays can be conducted with a recombinant source of CRF2R. Cells expressing both forms of CRFR may be modified using homologous recombination to inactivate or otherwise disable the CRF1R gene. Alternatively, if the source of CRFR contains more than one CRFR type, the background signal produced by the receptor which is not of interest must be subtracted from the signal obtained in the assay. […] Known antagonists of CRFRs include, but, are not limited to, antalarmin (CRF1R selective), antisauvagine-30 (CRF2R selective) and astressin (nonselective for CRF1R/CRF2R).
(§3) Cell-based assays include the steps of contacting cells which express CRF1R or CRF2R with a peptide of the present invention or control and measuring activation of the CRFR by measuring the expression or activity of components of the CRFR signal transduction pathways.
(§4) As described in the background section above, CRFRs appear to couple through several different pathways including Gαs, Gαq or Gαi, depending upon the cell type. It is thought that agonist activation of CRFR allows the receptor to signal via any of these pathways, provided that the necessary pathway components are present in the particular cell type. Thus, to assay a particular peptide of the present invention for CRFR activation, an assay can use any of the signal transduction pathways as the readout even if the relevant cell type for treatment, in vivo, couples CRFR to skeletal muscle atrophy via a different pathway. […] Assays for measuring activation of these signaling pathways are known in the art.
(§5) For example, after contact with a peptide of the present invention, lysates of the cells can be prepared and assayed for induction of cAMP. cAMP is induced in response to Gαs activation. Because Gαs is activated by receptors other than CRFR and because a test peptide may be exerting its effect through CRFRs or by another mechanism, two control comparisons are relevant for determining whether the peptide increases levels of cAMP via activation of a CRFR. One control compares the cAMP level of cells contacted with the peptide and the cAMP level of cells contacted with a control compound (i.e., the vehicle in which the peptide is dissolved).
(§6) In one example, cAMP induction is measured with the use of DNA constructs containing the cAMP responsive element linked to any of a variety of reporter genes can be introduced into cells expressing CRFRs. Such reporter genes include, but are not limited to, chloramphenicol acetyltransferase (CAT), luciferase, glucuronide synthetase, growth hormone, fluorescent proteins (e.g., Green Fluorescent Protein), or alkaline phosphatase. Following exposure of the cells to the peptide, the level of reporter gene expression can be quantitated to determine the peptide's ability to increase cAMP levels and thus determine the peptide's ability to activate the CRFR.
(§7) In addition to using cells expressing full length CRFRs, cells can be engineered which express CRFRs containing the ligand binding domain of the receptor coupled to, or physically modified to contain, reporter elements or to interact with signaling proteins.

CRF1R = target: T2, CRF1R (Homo sapiens, UniProt P34998); experiment: CRF1R agonist activity (EC50, Emax), called comparative CRF binding; type: cell-based; settings: read-out: CRF1R EC50
T2 sequence (P34998 24-415): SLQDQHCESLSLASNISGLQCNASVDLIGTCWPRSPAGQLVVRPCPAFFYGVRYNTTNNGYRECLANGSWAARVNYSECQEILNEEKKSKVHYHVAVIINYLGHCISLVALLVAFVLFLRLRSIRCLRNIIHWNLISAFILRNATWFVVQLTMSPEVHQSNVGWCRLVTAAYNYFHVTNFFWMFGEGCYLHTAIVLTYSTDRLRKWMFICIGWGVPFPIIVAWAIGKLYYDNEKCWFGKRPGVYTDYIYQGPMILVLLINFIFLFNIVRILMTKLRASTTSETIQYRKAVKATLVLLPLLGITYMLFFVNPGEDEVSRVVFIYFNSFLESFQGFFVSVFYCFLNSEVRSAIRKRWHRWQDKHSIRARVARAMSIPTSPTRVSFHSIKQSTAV
Text: as §1, §2, §3, §4, §5, §6, §7

## CC[C@H](C)[C@H](N)C(=O)N[C@H](C(=O)N[C@@H](CC(C)C)C(=O)N[C@@H](CO)C(=O)N[C@@H](CC(C)C)C(=O)N[C@@H](CC(=O)O)C(=O)N[C@H](C(=O)N1CCC[C@H]1C(=O)N[C@H](C(=O)NCC(=O)N[C@@H](CC(C)C)C(=O)N[C@@H](CC(C)C)C(=O)N[C@@H](CCC(N)=O)C(=O)N[C@H](C(=O)N[C@@H](CC(C)C)C(=O)N[C@@H](CC(C)C)C(=O)N[C@@H](CCC(=O)O)C(=O)N[C@@H](CCC(N)=O)C(=O)N[C@@H](C)C(=O)N[C@@H](CCCNC(=N)N)C(=O)N[C@@H](C)C(=O)N[C@@H](CCCNC(=N)N)C(=O)N[C@@H](C)C(=O)N[C@@H](C)C(=O)N[C@@H](CCCNC(=N)N)C(=O)N[C@@H](CCC(=O)O)C(=O)N[C@@H](CCC(N)=O)C(=O)N[C@@H](C)C(=O)N[C@H](C(=O)N[C@H](C(=O)N[C@@H](CC(N)=O)C(=O)N[C@@H](C)C(=O)N[C@@H](CCCNC(=N)N)C(=O)N[C@H](C(=O)N[C@@H](CC(C)C)C(=O)N[C@@H](C)C(=O)N[C@@H](CCCNC(=N)N)C(=O)N[C@H](C(=O)N[C@@H](CCSC)C(N)=O)C(C)C)[C@@H](C)CC)[C@@H](C)O)[C@@H](C)O)[C@@H](C)CC)[C@@H](C)CC)C(C)C)C(C)C [compound 368] (H-IVLSLDVPIGLLQILLEQARARAAREQATTNARILARVM-NH2)
CRF2R
  EC50: 50.4 nM
CRF1R
  EC50: ≥ 1000 nM

## CC[C@H](C)[C@H](NC(=O)[C@H](C)NC(=O)[C@H](CC(N)=O)NC(=O)[C@H](CCC(N)=O)NC(=O)[C@H](CCC(=O)O)NC(=O)[C@H](C)NC(=O)[C@H](CCCNC(=N)N)NC(=O)[C@H](CCC(=O)O)NC(=O)[C@H](CCCNC(=N)N)NC(=O)[C@H](CCC(N)=O)NC(=O)[C@H](CO)NC(=O)[C@H](CCC(N)=O)NC(=O)[C@@H](NC(=O)[C@H](CCCNC(=N)N)NC(=O)[C@H](C)NC(=O)[C@H](CC(C)C)NC(=O)[C@H](CCC(=O)O)NC(=O)[C@H](CC(C)C)NC(=O)[C@H](CC(C)C)NC(=O)[C@@H](NC(=O)[C@H](CCCNC(=N)N)NC(=O)[C@H](CC(C)C)NC(=O)[C@H](CC(C)C)NC(=O)[C@@H](NC(=O)[C@H](Cc1ccccc1)NC(=O)[C@@H]1CCCN1C(=O)[C@H](CC(C)C)NC(=O)[C@H](CC(=O)O)NC(=O)[C@@H](NC(=O)[C@H](CO)NC(=O)[C@H](CC(C)C)NC(=O)[C@H](CO)NC(=O)[C@@H]1CCCN1C(=O)[C@H](CC(N)=O)NC(=O)[C@@H](N)CC(=O)O)[C@@H](C)CC)[C@@H](C)CC)[C@@H](C)O)[C@@H](C)O)C(=O)N[C@H](C(=O)N[C@@H](Cc1ccccc1)C(=O)N[C@@H](C)C(=O)N[C@@H](CO)C(=O)N[C@H](C(N)=O)C(C)C)[C@@H](C)CC [compound 181] (H-DNPSLSIDLPFILLRTLLELARTQSQRERAEQNAIIFASV-NH2; N-terminus assumed)
CRF2R
  EC50: 5.22 nM
CRF1R
  EC50: 154 nM

## CC[C@H](C)[C@H](N)C(=O)N[C@H](C(=O)N[C@@H](CC(C)C)C(=O)N[C@@H](CO)C(=O)N[C@@H](CC(C)C)C(=O)N[C@@H](CC(=O)O)C(=O)N[C@H](C(=O)N1CCC[C@H]1C(=O)N[C@H](C(=O)NCC(=O)N[C@@H](CC(C)C)C(=O)N[C@@H](CC(C)C)C(=O)N[C@@H](CCC(N)=O)C(=O)N[C@H](C(=O)N[C@@H](CC(C)C)C(=O)N[C@@H](CC(C)C)C(=O)N[C@@H](CCC(=O)O)C(=O)N[C@@H](CCSC)C(=O)N[C@@H](C)C(=O)N[C@@H](CCCNC(=N)N)C(=O)N[C@@H](C)C(=O)N[C@@H](CCC(=O)O)C(=O)N[C@@H](CCC(N)=O)C(=O)N[C@@H](CC(C)C)C(=O)N[C@@H](C)C(=O)N[C@@H](CCC(N)=O)C(=O)N[C@@H](CCC(N)=O)C(=O)N[C@@H](C)C(=O)N[C@@H](Cc1c[nH]cn1)C(=O)N[C@@H](CO)C(=O)N[C@@H](CC(N)=O)C(=O)N[C@@H](CCCNC(=N)N)C(=O)N[C@@H](CCCCN)C(=O)N[C@@H](CC(C)C)C(=O)N[C@@H](CCSC)C(=O)N[C@@H](CCC(=O)O)C(=O)N[C@H](C(=O)N[C@H](C(N)=O)[C@@H](C)CC)[C@@H](C)CC)[C@@H](C)CC)[C@@H](C)CC)C(C)C)C(C)C [compound 164] (H-IVLSLDVPIGLLQILLEMARAEQLAQQAHSNRKLMEII-NH2; N-terminus assumed)
CRF2R
  EC50: 2.24 nM
CRF1R
  EC50: > 100 nM

## NDDPPISIDLPFHLLRNMIEMARIENEREQAGLNAKYLAEV-NH2 [compound 262]
CRF2R
  EC50: ≥ 100 nM
CRF1R
  EC50: 408 nM

## CC[C@H](C)[C@H](N)C(=O)N[C@H](C(=O)N[C@@H](CC(C)C)C(=O)N[C@@H](CO)C(=O)N[C@@H](CC(C)C)C(=O)N[C@@H](CC(=O)O)C(=O)N[C@H](C(=O)N1CCC[C@H]1C(=O)N[C@H](C(=O)NCC(=O)N[C@@H](CC(C)C)C(=O)N[C@@H](CC(C)C)C(=O)N[C@@H](CCC(N)=O)C(=O)N[C@H](C(=O)N[C@@H](CC(C)C)C(=O)N[C@@H](CC(C)C)C(=O)N[C@@H](CCC(=O)O)C(=O)N[C@@H](CCC(N)=O)C(=O)N[C@@H](CCC(=O)O)C(=O)N[C@@H](CCCCN)C(=O)N[C@@H](CCC(N)=O)C(=O)N[C@@H](CCC(=O)O)C(=O)N[C@@H](C)C(=O)N[C@@H](C)C(=O)N[C@@H](CCCNC(=N)N)C(=O)N[C@@H](CCC(=O)O)C(=O)N[C@@H](CCC(N)=O)C(=O)N[C@@H](C)C(=O)N[C@H](C(=O)N[C@H](C(=O)N[C@@H](CC(N)=O)C(=O)N[C@@H](C)C(=O)N[C@@H](CCCNC(=N)N)C(=O)N[C@H](C(=O)N[C@@H](CC(C)C)C(=O)N[C@@H](C)C(=O)N[C@@H](CCCNC(=N)N)C(=O)N[C@H](C(N)=O)C(C)C)[C@@H](C)CC)[C@@H](C)O)[C@@H](C)O)[C@@H](C)CC)[C@@H](C)CC)C(C)C)C(C)C [compound 125] (H-IVLSLDVPIGLLQILLEQEKQEAAREQATTNARILARV-NH2; N-terminus assumed)
CRF2R
  EC50: 4.47 nM
CRF1R
  EC50: > 100 nM
